Test results: patent US20060135480A1, “Derivatives of succinic and glutaric acids and analogs thereof useful as inhibitors of phex” (Enobia Pharma, priority 2002, published 2006)

What was measured:
sPHEX [1] = target: T1, sPHEX (Homo sapiens, UniProt P78562); test: Protection of PHEX substrate PTHrP107-139 from sPHEX degradation (RP-HPLC); type: biochemical; conditions: 1×10^−5 M inhibitor, 15 min preincubation, 30 min at 37° C.
T1 construct: The soluble form of the metallopeptidase PHEX (sPHEX) was purified to homogeneity; made in house
T1 sequence (P78562 53-749 limits assumed): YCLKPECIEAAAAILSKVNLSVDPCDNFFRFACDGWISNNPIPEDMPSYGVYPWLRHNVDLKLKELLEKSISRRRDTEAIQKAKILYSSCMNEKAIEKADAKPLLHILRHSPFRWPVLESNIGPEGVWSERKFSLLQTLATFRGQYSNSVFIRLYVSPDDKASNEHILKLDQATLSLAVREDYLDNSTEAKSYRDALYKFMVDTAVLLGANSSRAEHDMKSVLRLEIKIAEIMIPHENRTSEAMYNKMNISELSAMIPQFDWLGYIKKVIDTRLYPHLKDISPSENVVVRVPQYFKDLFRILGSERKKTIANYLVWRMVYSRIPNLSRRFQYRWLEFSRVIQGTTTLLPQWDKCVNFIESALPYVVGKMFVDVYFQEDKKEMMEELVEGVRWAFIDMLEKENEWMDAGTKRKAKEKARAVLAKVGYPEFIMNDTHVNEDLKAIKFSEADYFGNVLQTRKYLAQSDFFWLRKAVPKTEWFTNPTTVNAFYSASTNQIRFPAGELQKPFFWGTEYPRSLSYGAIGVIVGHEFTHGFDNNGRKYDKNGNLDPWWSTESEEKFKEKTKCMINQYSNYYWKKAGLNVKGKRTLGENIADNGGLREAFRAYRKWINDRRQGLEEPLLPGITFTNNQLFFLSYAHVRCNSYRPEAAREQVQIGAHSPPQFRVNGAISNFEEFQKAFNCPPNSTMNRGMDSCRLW
Procedure: In general, in order to show inhibition of sPHEX, the enzyme is incubated in the absence or the presence of the inhibiting compound, and a substrate is added in conditions that are suitable for sPHEX enzymatic activity. Hydrolysis of the substrate in the absence or the presence of the inhibiting compound is monitored.
For example, 1.0 μg of purified sPHEX was first incubated at 37° C. for 15 min with or without 1×10^−5M of compound MH-2-64C (FIG. 1) in 90 μl 50 mM MES (2-(N-morpholino) ethanesulfonic acid) pH 6.5, 150 mM NaCl. Then, 2.5 μg of peptide PTHrP107-139 in 10 μl of the same buffer were added and the incubation continued for 30 min. The reaction mixture also contained 1.3 μg of the amino acid Phe which was used as an internal standard. After the incubation period, the reaction was stopped by the addition of EDTA to a final concentration of 5 mM. Detection of cleavage products was performed by reverse phase high performance liquid chromatography (RP-HPLC) on a C18 μBondapak™ analytical column (Waters, Mississauga, ON, Canada) with a UV detector set at 220 nm. […] Results were quantified by comparing the area under the undigested peak of PTHrP107-139, after normalization for the amount of Phe present in the sample.

sPHEX [2] = target: T1, sPHEX; test: sPHEX inhibitor IC50 determination using a fluorogenic substrate (Abz-GFSDYK-Dnp, S3); type: biochemical; conditions: fluorogenic substrate 20 μM, 100 ng sPHEX, pH 6.5
Procedure: The soluble form of the metallopeptidase PHEX (sPHEX) was purified to homogeneity according to the methods of Boileau and Crine (WO 00/50580). sPHEX quantity was measured with the Bradford assay (BioRad) using BSA as a standard.
sPHEX activity was determined using a fluorogenic substrate in which an increase of fluorescence was proportional to substrate conversion to products.
S3 was synthesized at Dr. Gilles Lajoie's laboratories (University of Western Ontario, Canada) by standard solid phase peptide synthesis. The fluorescent reaction product was excited at 320 nm to fluoresce at 420 nm. Fluorescence was recorded at 420 nm every five minutes over a one-hour period on a fluorescence plate reader (Perkin-Elmer, HTS-7000) to calculate the initial rate of the reaction. Typically, the reaction was carried out in 200 μl of buffer M (50 mM Mes(NaOH) pH 6.5, 150 mM NaCl) containing 100 ng of purified sPHEX and 20 μM of fluorigenic substrate to initiate the reaction. Enzymatic activity was determined by subtracting either the initial rate of substrate in buffer (solvolysis), or the typical reaction rate in which 5 mM EDTA was added prior to initiating the reaction.
sPHEX inhibitor IC50 determinations were done using the tested inhibitor at various concentrations coming from a serial dilution (usually ranging from 10^−3 M to 10^−12 M) in the reaction described above. IC50 values were calculated using the iterative four parameters non-linear regression formula from the GraphPad™ software (Prism).

degradation of PTHrP107-139 by sPHEX (sPHEX [1]): fully prevented
IC50 (sPHEX [2]): 17 nM
SMILES: O=C(O)CC(CC(=O)NO)C(=O)NCCc1ccc(-c2ccccc2)cc1 (centres unmarked) [Example 126, 3-(2-Biphenyl-4-yl-ethylcarbamoyl)4-hydroxycarbamoyl-butyric acid]
